Assay results as given in patent publication US20060069132A1, “Azolecarboxamide herbicides” (priority 2004, published 2006).

Columns and labels:
barnyardgrass [1] = assay: Test A pre-/postemergence herbicide test; format: in vivo, Echinochloa crus-galli
In short: (§1)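 Greenhouse injury scoring (0–100, complete control = 100) at approximately ten days follows simultaneous pre- and postemergence application. Soil received a directed spray after seeding; seedlings of 2–10 cm at the one- to two-leaf stage were sprayed to runoff.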

large crabgrass [2] = assay: Test A pre-/postemergence herbicide test; format: in vivo, Digitaria sanguinalis
In short: as §1

giant foxtail [3] = assay: Test A pre-/postemergence herbicide test; format: in vivo, Setaria faberi
In short: as §1

morningglory [4] = assay: Test A pre-/postemergence herbicide test; format: in vivo, Ipomoea spp.
In short: as §1

redroot pigweed = assay: Test A pre-/postemergence herbicide test; format: in vivo, Amaranthus retroflexus
In short: as §1

velvetleaf [5] = assay: Test A pre-/postemergence herbicide test; format: in vivo, Abutilon theophrasti
In short: as §1

barnyardgrass [6] = assay: Test B pre-/postemergence herbicide test; format: in vivo, Echinochloa crus-galli; conditions: for Barnyardgrass plant response rating: postemergence
In short: (§2)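 Seeds were planted and treated preemergence with compounds formulated in a non-phytotoxic solvent mixture containing surfactant, while plants at the 1- to 4-leaf stage (2 to 18 cm) received postemergence sprays. Flooded paddy plants were grown to the 2-leaf stage. After 13 to 15 days in a greenhouse, injury was visually rated 0–100 against untreated controls.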

Surinam grass = assay: Test B pre-/postemergence herbicide test; format: in vivo, Urochloa decumbens; conditions: for Surinam Grass plant response rating: postemergence
In short: (§3)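 Plants compared with untreated controls 13–15 days post-treatment and given a visual 0–100 injury score. Applications: preemergence to seeds; postemergence at 1- to 4-leaf (2–18 cm); paddy species flooded, 2-leaf stage. Vehicle non-phytotoxic, surfactant included.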

cocklebur = assay: Test B pre-/postemergence herbicide test; format: in vivo, Xanthium strumarium; conditions: for Cocklebur plant response rating: postemergence
In short: as §2

corn = assay: Test B pre-/postemergence herbicide test; format: in vivo, Zea mays; conditions: for Corn plant response rating: postemergence
In short: as §3

large crabgrass [7] = assay: Test B pre-/postemergence herbicide test; format: in vivo, Digitaria sanguinalis; conditions: for Crabgrass, Large plant response rating: postemergence
In short: as §3

giant foxtail [8] = assay: Test B pre-/postemergence herbicide test; format: in vivo, Setaria faberi; conditions: for Foxtail, Giant plant response rating: postemergence
In short: as §3

lambsquarters = assay: Test B pre-/postemergence herbicide test; format: in vivo, Chenopodium album; conditions: for Lambsquarters plant response rating: postemergence
In short: as §3

morningglory [9] = assay: Test B pre-/postemergence herbicide test; format: in vivo, Ipomoea coccinea; conditions: for Morningglory plant response rating: postemergence
In short: as §2

pigweed = assay: Test B pre-/postemergence herbicide test; format: in vivo, Amaranthus retroflexus; conditions: for Pigweed plant response rating: postemergence
In short: as §3

velvetleaf [10] = assay: Test B pre-/postemergence herbicide test; format: in vivo, Abutilon theophrasti; conditions: for Velvetleaf plant response rating: postemergence
In short: as §3

blackgrass = assay: Test B postemergence herbicide test; format: in vivo, Alopecurus myosuroides; conditions: postemergence
In short: (§4)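 Postemergence plants were sprayed with formulated test chemicals at 2 to 18 cm height (1- to 4-leaf stage); paddy species were grown to the 2-leaf stage. After 13 to 15 days in a greenhouse, injury was rated visually against untreated controls on a 0–100 scale (0 = no effect, 100 = complete control).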

wheat = assay: Test B postemergence herbicide test; format: in vivo, Triticum aestivum; set-up: key to Wheat plant response rating: 0 = no effect, 100 = complete control; conditions: postemergence
In short: (§5)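 Scale 0–100: zero equals no visible effect, 100 complete control, judged by eye relative to controls. Timing: 13 to 15 days in greenhouse post-treatment. Growth stage at spraying: two leaves (paddy) or one to four leaves, 2–18 cm (postemergence).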

wild oat = assay: Test B postemergence herbicide test; format: in vivo, Avena fatua; conditions: postemergence
In short: as §5

rice = assay: Test B flooded paddy test; format: in vivo, Oryza sativa; conditions: 1000 g ai/ha, scale 0 to 100 (0 no effect, 100 complete control)
In short: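 Formulated test chemicals went onto postemergence plants measuring 2 to 18 cm, at one to four leaves. For the paddy assay, species had reached two leaves. Scoring took place 13–15 days later by eye, relative to untreated plants, using 0 for no effect up to 100 for full control.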

[11] = tested on: small flower umbrella sedge; assay: Test B flooded paddy test; format: in vivo, Cyperus difformis; conditions: 1000 g ai/ha, scale 0 to 100 (0 no effect, 100 complete control)
In short: as §4

ducksalad = assay: Test B flooded paddy test; format: in vivo, Heteranthera limosa; conditions: 1000 g ai/ha, scale 0 to 100 (0 no effect, 100 complete control)
In short: as §4

barnyardgrass [12] = assay: Test B flooded paddy test; format: in vivo, Echinochloa crus-galli; conditions: 1000 g ai/ha, scale 0 to 100 (0 no effect, 100 complete control)
In short: as §4

[13] = Postemergence, 500 g ai/ha, 0 to 100 scale, 0 no effect, 100 complete control
[14] = Postemergence, 2000 g ai/ha, 0 to 100 scale, 0 no effect, 100 complete control
[15] = Preemergence, 2000 g ai/ha, visual rating, 0 to 100 scale (0 no effect, 100 complete control)
[16] = preemergence, 500 g ai/ha, visual injury, 0 to 100 scale (0 no effect, 100 complete control)
[17] = 125 g ai/ha, 0 = no effect, 100 = complete control, preemergence
[18] = 125 g ai/ha, visual rating, scale 0 (no effect) to 100 (complete control)
[19] = 500 g ai/ha, visual rating, 0 = no effect, 100 = complete control, preemergence
[20] = 500 g ai/ha, scale 0 to 100, 0 is no effect, 100 is complete control

SMILES: COC(=O)c1cccc(NC(=O)c2cc(C(C)(C)C)nn2C)n1 [Compound 312]
- Barnyardgrass plant response rating (barnyardgrass [1]; [13]): 0
- Plant response rating, Barnyardgrass (barnyardgrass [1]; [14]): 0
- Barnyardgrass plant response rating (barnyardgrass [1]; [15]): 0
- Barnyardgrass plant response rating (barnyardgrass [1]; [16]): 0
- Crabgrass, Large plant response rating (large crabgrass [2]; [13]): 0
- Plant response rating, Crabgrass, Large (large crabgrass [2]; [14]): 0
- Crabgrass, Large plant response rating (large crabgrass [2]; [15]): 0
- Crabgrass, Large plant response rating (large crabgrass [2]; [16]): 0
- Foxtail, Giant plant response rating (giant foxtail [3]; [13]): 0
- Plant response rating, Foxtail, Giant (giant foxtail [3]; [14]): 0
- Foxtail, Giant plant response rating (giant foxtail [3]; [15]): 0
- Foxtail, Giant plant response rating (giant foxtail [3]; [16]): 0
- Morningglory plant response rating (morningglory [4]; [13]): 0
- Plant response rating, Morningglory (morningglory [4]; [14]): 0
- Morningglory plant response rating (morningglory [4]; [15]): 0
- Morningglory plant response rating (morningglory [4]; [16]): 0
- Pigweed plant response rating (redroot pigweed; [13]): 0
- Plant response rating, Pigweed (redroot pigweed; [14]): 0
- Pigweed plant response rating (redroot pigweed; [15]): 0
- Pigweed plant response rating (redroot pigweed; [16]): 0
- Velvetleaf plant response rating (velvetleaf [5]; [13]): 0
- Plant response rating, Velvetleaf (velvetleaf [5]; [14]): 0
- Velvetleaf plant response rating (velvetleaf [5]; [15]): 0
- Velvetleaf plant response rating (velvetleaf [5]; [16]): 0
- Barnyardgrass plant response rating (0 to 100 scale) (barnyardgrass [6]; [17]): 0
- Barnyardgrass plant response rating (barnyardgrass [6]; [18]): 0
- Plant response rating, Barnyardgrass (barnyardgrass [6]; [19]): 0
- Barnyardgrass plant response rating (barnyardgrass [6]; [20]): 0
- Surinam Grass plant response rating (0 to 100 scale) (Surinam grass; [17]): 0
- Surinam Grass plant response rating (Surinam grass; [18]): 0
- Plant response rating, Surinam Grass (Surinam grass; [19]): 0
- Surinam Grass plant response rating (Surinam grass; [20]): 0
- Cocklebur plant response rating (0 to 100 scale) (cocklebur; [17]): 0
- Cocklebur plant response rating (cocklebur; [18]): 0
- Plant response rating, Cocklebur (cocklebur; [19]): 0
- Cocklebur plant response rating (cocklebur; [20]): 0
- Corn plant response rating (0 to 100 scale) (corn; [17]): 0
- Corn plant response rating (corn; [18]): 0
- Plant response rating, Corn (corn; [19]): 0
- Corn plant response rating (corn; [20]): 0
- Crabgrass, Large plant response rating (0 to 100 scale) (large crabgrass [7]; [17]): 0
- Crabgrass, Large plant response rating (large crabgrass [7]; [18]): 0
- Plant response rating, Crabgrass, Large (large crabgrass [7]; [19]): 0
- Crabgrass, Large plant response rating (large crabgrass [7]; [20]): 0
- Foxtail, Giant plant response rating (0 to 100 scale) (giant foxtail [8]; [17]): 0
- Foxtail, Giant plant response rating (giant foxtail [8]; [18]): 0
- Plant response rating, Foxtail, Giant (giant foxtail [8]; [19]): 0
- Foxtail, Giant plant response rating (giant foxtail [8]; [20]): 0
- Lambsquarters plant response rating (0 to 100 scale) (lambsquarters; [17]): 0
- Lambsquarters plant response rating (lambsquarters; [18]): 10
- Plant response rating, Lambsquarters (lambsquarters; [19]): 0
- Lambsquarters plant response rating (lambsquarters; [20]): 20
- Morningglory plant response rating (0 to 100 scale) (morningglory [9]; [17]): 0
- Morningglory plant response rating (morningglory [9]; [18]): 0
- Plant response rating, Morningglory (morningglory [9]; [19]): 0
- Morningglory plant response rating (morningglory [9]; [20]): 20
- Pigweed plant response rating (0 to 100 scale) (pigweed; [17]): 0
- Pigweed plant response rating (pigweed; [18]): 0
- Plant response rating, Pigweed (pigweed; [19]): 0
- Pigweed plant response rating (pigweed; [20]): 20
- Velvetleaf plant response rating (velvetleaf [10]; [18]): 0
- Plant response rating, Velvetleaf (velvetleaf [10]; [19]): 0
- Velvetleaf plant response rating (velvetleaf [10]; [20]): 0
- Blackgrass plant response rating (blackgrass; [18]): 0
- Blackgrass plant response rating (blackgrass; [20]): 0
- Wheat plant response rating (wheat; [18]): 0
- Wheat plant response rating (wheat; [20]): 0
- Oat, Wild plant response rating (wild oat; [18]): 0
- Oat, Wild plant response rating (wild oat; [20]): 0
- Rice plant response rating (rice): 0
- Sedge, Umbrella plant response rating [11]: 0
- Ducksalad plant response rating (ducksalad): 0
- Barnyardgrass plant response rating (barnyardgrass [12]): 0
